Data: US20240425500A1 (priority 2021, published 2024)

Legend:
[1] = test system: Plasmopara viticola; assay: whole plant or invertebrate; format: in vivo; details: foliar, read-out: control of Plasmopara viticola compared to untreated control
[2] = test system: Phytophthora infestans; assay: whole plant or invertebrate; format: in vivo; details: in Solanum lycopersicum, foliar, read-out: control of Phytophthora infestans compared to untreated control
[3] = test system: Pythium ultimum; assay: Pythium ultimum / liquid culture (seedling damping off); format: cell-based; details: Globisporangium ultimum, liquid culture in PDB, 24 °C, 2-3 days after application, read-out: control of Pythium ultimum (inhibition of growth, photometric) compared to untreated control
How it was run: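 Mycelia fragments and oospores from fresh liquid culture mixed into potato dextrose broth and added to compound in DMSO. Incubated at 24° C.; growth inhibition read photometrically 2–3 days after application.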

COC(=O)Nc1ccc(-c2cnc3ccc(C(=O)N(c4ccc(F)cc4)C4CC4)cn23)cn1 [Compound 110, methyl N-[5-[6-[cyclopropyl-(4-fluorophenyl)carbamoyl]imidazo [1,2-a]pyridin-3-yl]-2-pyridyl]carbamate]
≥ 80%: pest or weed control at 200 ppm [1] | pest or weed control at 200 ppm [2] | inhibition at 20 ppm [3]

COC(=O)Nc1ccc(-c2cnc3ccc(C(=O)N(C)c4ccc(F)c(Cl)c4)cn23)cn1 [Compound 113, methyl N-[5-[6-[(3-chloro-4-fluoro-phenyl)-methyl-carbamoyl]imidazo[1,2-a]pyridin-3-yl]-2-pyridyl]carbamate]
≥ 80%: pest or weed control at 200 ppm [1] | pest or weed control at 200 ppm [2] | inhibition at 20 ppm [3]

CCN(C(=O)c1ccc2ncc(-c3ccc(NC(=O)OC)nc3)n2c1)c1ccc(F)c(C)c1 [Compound 116, methyl N-[5-[6-[ethyl-(4-fluoro-3-methyl-phenyl)carbamoyl]imidazo [1,2-a]pyridin-3-yl]-2-pyridyl]carbamate]
≥ 80%: pest or weed control at 200 ppm [1] | pest or weed control at 200 ppm [2] | inhibition at 20 ppm [3]

CCN(C(=O)c1ccc2ncc(-c3ccc(NC(=O)OC)nc3)n2c1)c1cccc(OC)c1 [Compound 124, methyl N-[5-[6-[ethyl-(3-methoxyphenyl)carbamoyl]imidazo[1,2-a]pyridin-3-yl]-2-pyridyl]carbamate]
≥ 80%: pest or weed control at 200 ppm [1] | pest or weed control at 200 ppm [2] | inhibition at 20 ppm [3]

CCN(C(=O)c1ccc2ncc(-c3ccc(NC(=O)OC)nc3)n2c1)c1ccc(F)cc1 [Compound 136, methyl N-[5-[6-[ethyl-(4-fluorophenyl)carbamoyl]imidazo[1,2-a]pyridin-3-yl]-2-pyridyl]carbamate]
≥ 80%: pest or weed control at 200 ppm [1] | pest or weed control at 200 ppm [2] | inhibition at 20 ppm [3]

COC(=O)Nc1ccc(-c2cnc3ccc(C(=O)N(CCC#N)c4cccc(OC)c4)cn23)cn1 [Compound 149, methyl N-[5-[6-[2-cyanoethyl-(3-methoxyphenyl)carbamoyl]imidazo[1,2-a]pyridin-3-yl]-2-pyridyl]carbamate]
≥ 80%: pest or weed control at 200 ppm [1] | pest or weed control at 200 ppm [2] | inhibition at 20 ppm [3]

COC(=O)Nc1ccc(-c2cnc3ccc(C(=O)N(C)c4ccc(F)c(OC)c4)cn23)cc1 [Compound 158, methyl N-[4-[6-[(4-fluoro-3-methoxy-phenyl)-methyl-carbamoyl]imidazo[1,2-a]pyridin-3-yl]phenyl]carbamate]
≥ 80%: pest or weed control at 200 ppm [1] | pest or weed control at 200 ppm [2] | inhibition at 20 ppm [3]

COC(=O)Nc1ccc(-c2cnc3ccc(C(=S)N(C)c4ccc(F)cc4)cn23)cn1 [Compound 164, methyl N-[5-[6-[(4-fluorophenyl)-methyl-carbamothioyl]imidazo[1,2-a]pyridin-3-yl]-2-pyridyl]carbamate]
≥ 80%: pest or weed control at 200 ppm [1] | pest or weed control at 200 ppm [2] | inhibition at 20 ppm [3]

COC(=O)Nc1ccc(-c2cnc3c(NC(C)=O)cc(C(=O)N(C)c4ccc(F)c(OC)c4)cn23)cn1 [Compound 169, methyl N-[5-[8-acetamido-6-[(4-fluoro-3-methoxy-phenyl)-methyl-carbamoyl]imidazo[1,2-a]pyridin-3-yl]-2-pyridyl]carbamate]
≥ 80%: pest or weed control at 200 ppm [1] | pest or weed control at 200 ppm [2] | inhibition at 20 ppm [3]

CCc1cc(C(=O)N(C)c2ccc(F)cc2)cn2c(-c3ccc(NC(=O)OC)nc3)cnc12 [Compound 170, methyl N-[5-[8-ethyl-6-[(4-fluorophenyl)-methyl-carbamoyl]imidazo[1,2-a]pyridin-3-yl]-2-pyridyl]carbamate]
≥ 80%: pest or weed control at 200 ppm [1] | pest or weed control at 200 ppm [2] | inhibition at 20 ppm [3]

COC(=O)Nc1ccc(-c2cnc3c(C)cc(C(=O)N(C)c4ccc(F)c(Cl)c4)cn23)cn1 [Compound 171, methyl N-[5-[6-[(3-chloro-4-fluoro-phenyl)-methyl-carbamoyl]-8-methyl-imidazo[1,2-a]pyridin-3-yl]-2-pyridyl]carbamate]
≥ 80%: pest or weed control at 200 ppm [1] | pest or weed control at 200 ppm [2] | inhibition at 20 ppm [3]

COCc1cc(C(=O)N(C)c2ccc(F)cc2)cn2c(-c3ccc(NC(=O)OC)nc3)cnc12 [Compound 172, methyl N-[5-[6-[(4-fluorophenyl)-methyl-carbamoyl]-8-(methoxymethyl)imidazo[1,2-a]pyridin-3-yl]-2-pyridyl]carbamate]
≥ 80%: pest or weed control at 200 ppm [1] | pest or weed control at 200 ppm [2] | inhibition at 20 ppm [3]

COCCN(C(=O)c1ccc2ncc(-c3ccc(NC(=O)OC)nc3)n2c1)c1ccc(F)c(OC)c1 [Compound 173, methyl N-[5-[6-[(4-fluoro-3-methoxy-phenyl)-(2-methoxyethyl)carbamoyl]imidazo[1,2-a]pyridin-3-yl]-2-pyridyl]carbamate]
≥ 80%: pest or weed control at 200 ppm [1] | pest or weed control at 200 ppm [2] | inhibition at 20 ppm [3]

COC(=O)Nc1ccc(-c2cnc3c(C)cc(C(=O)N(C)c4ccc(F)c(F)c4)cn23)cn1 [Compound 174, methyl N-[5-[6-[(3,4-difluorophenyl)-methyl-carbamoyl]-8-methyl-imidazo[1,2-a]pyridin-3-yl]-2-pyridyl]carbamate]
≥ 80%: pest or weed control at 200 ppm [1] | pest or weed control at 200 ppm [2] | inhibition at 20 ppm [3]

CCN(C(=O)c1ccc2ncc(-c3ccc(NC(=O)OC)nc3)n2c1)c1ccc(F)c(OC)c1 [Compound 178, methyl N-[5-[6-[ethyl-(4-fluoro-3-methoxy-phenyl)carbamoyl]imidazo [1,2-a]pyridin-3-yl]-2-pyridyl]carbamate]
≥ 80%: pest or weed control at 200 ppm [1] | pest or weed control at 200 ppm [2] | inhibition at 20 ppm [3]
